Earlier results as cited in patent US7510874B2, “Stable cell lines expressing HERG1a and HERG1b” (priority 2003, dated 2009).

Biological target: IKr currents (Homo sapiens, UniProt Q12809)
Settings: background statement with literature references

Chain of IKr currents (Q12809 whole entry): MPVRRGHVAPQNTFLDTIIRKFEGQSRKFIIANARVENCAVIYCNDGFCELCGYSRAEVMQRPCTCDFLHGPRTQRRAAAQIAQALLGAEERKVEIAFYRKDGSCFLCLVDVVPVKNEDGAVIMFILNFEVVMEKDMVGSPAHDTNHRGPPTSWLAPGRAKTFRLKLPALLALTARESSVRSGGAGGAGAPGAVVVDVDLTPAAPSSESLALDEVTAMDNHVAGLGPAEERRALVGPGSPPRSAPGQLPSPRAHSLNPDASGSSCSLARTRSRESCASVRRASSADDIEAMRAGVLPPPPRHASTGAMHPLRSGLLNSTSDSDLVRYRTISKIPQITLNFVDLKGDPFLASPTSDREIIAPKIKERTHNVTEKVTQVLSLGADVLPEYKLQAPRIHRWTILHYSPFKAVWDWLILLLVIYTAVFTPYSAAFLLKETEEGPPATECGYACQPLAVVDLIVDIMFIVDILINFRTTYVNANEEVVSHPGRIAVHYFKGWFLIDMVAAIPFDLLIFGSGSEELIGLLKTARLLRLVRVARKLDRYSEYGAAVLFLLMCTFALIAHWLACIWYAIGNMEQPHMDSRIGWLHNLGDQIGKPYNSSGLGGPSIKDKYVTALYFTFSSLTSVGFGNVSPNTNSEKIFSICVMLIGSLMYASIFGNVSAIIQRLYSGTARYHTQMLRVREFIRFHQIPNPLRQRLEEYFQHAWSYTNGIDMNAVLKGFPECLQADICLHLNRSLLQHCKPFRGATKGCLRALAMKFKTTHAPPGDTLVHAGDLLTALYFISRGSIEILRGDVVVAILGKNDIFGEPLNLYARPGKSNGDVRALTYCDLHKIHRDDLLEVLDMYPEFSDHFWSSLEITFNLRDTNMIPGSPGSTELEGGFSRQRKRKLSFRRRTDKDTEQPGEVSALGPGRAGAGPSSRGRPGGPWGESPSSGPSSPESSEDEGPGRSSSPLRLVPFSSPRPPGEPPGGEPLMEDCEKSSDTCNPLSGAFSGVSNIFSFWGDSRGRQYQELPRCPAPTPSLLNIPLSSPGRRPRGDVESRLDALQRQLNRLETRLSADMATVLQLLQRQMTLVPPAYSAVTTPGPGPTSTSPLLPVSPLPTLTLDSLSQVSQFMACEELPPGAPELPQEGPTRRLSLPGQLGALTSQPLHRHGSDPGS

Structure (SMILES): COc1cc(N)c(Cl)cc1C(=O)NC1CCN(CCCOc2ccc(F)cc2)CC1OC (stereo not shown) [cisapride]
- block of IKr currents (cause of acquired LQTS): block of IKr currents
